Values joined by “and” are separate entries in the source; they are usually repeats but may differ in a detail not shown here. Equal entries are not always repeated.
Assays:
UbC = assay: Northern blot of UbC mRNA in tissues after heat shock with opioid pretreatment; assay type: in vivo, rat; settings: heat shock 1 h 44° C
Method: (§1) Experiments were undertaken to study the molecular stress response after heat stress with and without opiate pretreatment in rats. Since it is know that both behavior and pain response to opiates are gender-dependent, both male and female rats were used. The animals were treated by exposure to dry heat at a colonic temperature of 44° C. The animals were sacrificed and brain, leg and heart tissue was removed. The molecular stress responses chosen were HSP 70 and ubiquitin. HSP 70 is a chaperone protein which helps repair damaged proteins, and UbB and UbC forms of ubiquitin are induced by cell damage. Messenger RNA was extracted and analyzed using Northern Blot determination of transcript intensity in saline heat shock controls versus pretreatment with DADLE, a non-specific delta opioid agonist, and deltorphin D.
(§2) The subjects were male and female Charles River rats. The rats were divided by sex and by treatment groups. There were four treatment groups: control saline treatment, heat shock-saline treatment, heat shock-DADLE treatment, and heat shock-deltorphin-D treatment. The rats underwent a three-day protocol, receiving injections each day and on the final day undergoing heat shock. The final treatment was given on day three of the experiment, 20 minutes before heat shock. Treatment consisted of intravenous tail injections at 1 mg/kg body weight for all groups. Heat shock was initiated by 1 hour exposure in an incubator at 44° C. The rats were sacrificed 2 hours later and alteration of molecular responses monitored by gel electrophoresis of RNA using Northern blots. DNA sequences for the molecular markers HSP70 and ubiquitin were used to probe the blots. The probes were radioactively labeled with p^32 to label the probe. When the probe “finds” its complementary sequence, it binds to it and the intensity of the signal which results is determined using Molecular Analyst software of the signals on X-ray film. The intensity of the black areas on the film is a measure of gene activity altered by treatment with the respective opioids.

UbB = assay: Northern blot of UbB mRNA in tissues after heat shock with opioid pretreatment; assay type: in vivo, rat; settings: heat shock 1 h 44° C
Method: as §1, §2

HSP70 = assay: Northern blot of HSP70 mRNA in tissues after heat shock with opioid pretreatment; assay type: in vivo, rat; settings: heat shock 1 h 44° C
Method: as §1, §2

[1] = Change in body core temperature with injections; assay type: in vivo, rat; settings: for Changes in Body Temperature, Temperature Day 1 / Changes in Body Temperature, Temperature Day 2: individual animals, 1 mg/kg i.v. tail injection, 1 mg/kg; for Effect on body temperature: summary of Table 3
Method: as §2

heat shock = assay: Heat shock by 1 hour exposure in incubator at 44° C, sensitivity to heat; assay type: in vivo, rat; settings: for Sensitization to heat: male rats, pretreatment; for Protection against heat, earlier work: males
Excerpt: The present invention centers on the concept of using opioids as a protective agent against heat shock. Earlier work studied how two opioids, deltorphin D and DADLE would affect molecular stress response to heat and survival. […] The current study focused on the use of deltorphin D to protect against heat stroke by administration before, after, or before and after, heat stroke. Heat stroke is defined as a rapid rise in blood pressure followed by a crash in pressure in response to overheating.
as §2

HSP 70 and ubiquitin = assay: Molecular stress response (HSP 70 and ubiquitin) after heat stress, overall; assay type: in vivo, rat; settings: pretreatment before heat shock; drug-unique patterns
Method: as §1
The subjects were male and female Charles River rats. The rats were divided by sex and by treatment groups. […] The rats were sacrificed 2 hours later and alteration of molecular responses monitored by gel electrophoresis of RNA using Northern blots. […] When the probe “finds” its complementary sequence, it binds to it and the intensity of the signal which results is determined using Molecular Analyst software of the signals on X-ray film. […]

[2] = Change in body core temperature with injections; assay type: in vivo, rat; settings: for Effect on body temperature, earlier work: males
hemorrhagic shock = settings: cited from earlier work
heat stroke = assay: Heat stroke induced by heating blanket in ketamine-anesthetized male rats; assay type: in vivo, rat; settings: for Body temperature at blood pressure crash (onset of heat stroke): blanket 51.5° C.
Method: Male rats were used in the study. The first rat weighed approximately 500 g and was anesthetized with ketamine and then wrapped in a heating blanket to raise its body temperature and induce heat stroke. The temperature and blood pressure of the anesthetized rat was monitored with a recording colonic temperature probe and a tail blood pressure cuff. When the symptoms of heat stroke were observed, 1.8 ml of 1.0 mg/ml pure deltorphin D was administered in the tail vein. The amount of deltorphin administered was based on the earlier hemorrhagic studies of Dr. Oeltgrn.
The second male rat was catherized with an arterial line two weeks previous to the next experiment to provide a means for more rapidly providing the deltorphin. The second rat weighed approximately 500 g and was anesthetized with ketamine and then wrapped in a heating blanket set at 51.5° C. to raise its body temperature and induce heat stroke. Prior to being wrapped in the heating blanket, a pre-treatment injection of 1.8 ml of 1.0 mg/ml pure deltorphin was provided through the catheter. The temperature and blood pressure of the anesthetized rat was monitored with a recording colonic temperature probe and blood pressure was monitored and recorded off of the arterial line. […] One hour later, another 1.8 ml of 1.0 mg/ml pure deltorphin was administered through the catheter. At that time, the rat was having difficulty moving.
A third male rat weighing approximately 200 g was catherized with an arterial line the day before the test. The third rat was anesthetized with ketamine and then wrapped in a heating blanket set at 51.5° C. to raise its body temperature and induce heat stroke. Prior to being wrapped in the heating blanket, a pre-treatment injection of 0.7 ml of 1.0 mg/ml pure deltorphin was provided through the catheter. The temperature and blood pressure of the anesthetized rat was monitored with a recording colonic temperature probe and blood pressure was monitored and recorded off of the arterial line. […] Fifteen minutes later, another 0.7 ml of 1.0 mg/ml pure deltorphin was administered through the catheter. The rat died approximately 75 minutes after the onset of heat stroke. […] Nonetheless, the third animal lived for 75 minutes. This survival rate is long when compared to the study reported at Chi WT, Kao TY, Lin MT. Neurosci Res. 1996 24:159-163 wherein rats in which heat stroke was induced lived only about 17 minutes after the onset of heat stroke and continuous perfusion of the animals with saline did nothing to extend their survival.

cerebral ischemia = settings: ischemia in mammals; cited from earlier work
[3] = Female Brain, 1 mg/kg i.v. tail injections over 3 days, sacrificed 2 hours later
[4] = Male rats, individual animals, 1 mg/kg i.v. tail injection, 1 mg/kg
[5] = second rat, 1.8 ml of 1.0 mg/ml before heating and one hour after onset, through catheter

## CC(C)C[C@@H](NC(=O)[C@H](Cc1ccccc1)NC(=O)CNC(=O)[C@@H](C)NC(=O)[C@@H](N)Cc1ccc(O)cc1)C(=O)O [DADLE, [D-Ala2-D-Leu5]enkephalin acetate (Tyr-D-Ala-Gly-Phe-D-Leu), reference compound]
UbC; [3]
  UBC measurement (Northern blot transcript intensity): 0.7993
UbC; Female Heart, 1 mg/kg i.v.
  UBC measurement (Northern blot transcript intensity): 0.5605
UbC; Female Leg, 1 mg/kg i.v.
  UBC measurement (Northern blot transcript intensity): 0.8995
UbC; Male Brain, 1 mg/kg i.v.
  UBC measurement (Northern blot transcript intensity): 2.356
UbC; Male Heart, 1 mg/kg i.v.
  UBC measurement (Northern blot transcript intensity): 0.5837
UbC; Male Leg, 1 mg/kg i.v.
  UBC measurement (Northern blot transcript intensity): 0.18
UbB; [3]
  UBB measurement (Northern blot transcript intensity): 1.688
UbB; Female Heart, 1 mg/kg i.v.
  UBB measurement (Northern blot transcript intensity): 3.57
UbB; Female Leg, 1 mg/kg i.v.
  UBB measurement (Northern blot transcript intensity): 2.76
UbB; Male Brain, 1 mg/kg i.v.
  UBB measurement (Northern blot transcript intensity): 4.596
UbB; Male Heart, 1 mg/kg i.v.
  UBB measurement (Northern blot transcript intensity): 0.7754
UbB; Male Leg, 1 mg/kg i.v.
  UBB measurement (Northern blot transcript intensity): 0.6005
HSP70; [3]
  HSP measurement (Northern blot transcript intensity): 1.295
HSP70; Female Heart, 1 mg/kg i.v.
  HSP measurement (Northern blot transcript intensity): 0.8958
HSP70; Female Leg, 1 mg/kg i.v.
  HSP measurement (Northern blot transcript intensity): 0.884
HSP70; Male Brain, 1 mg/kg i.v.
  HSP measurement (Northern blot transcript intensity): 1.391
HSP70; Male Heart, 1 mg/kg i.v.
  HSP measurement (Northern blot transcript intensity): 0.5364
HSP70; Male Leg, 1 mg/kg i.v.
  HSP measurement (Northern blot transcript intensity): 0.3294
[1]; Female rats
  Changes in Body Temperature, Temperature Day 1: −2.4 and 0.45 and −1.85 and −0.85
  Changes in Body Temperature, Temperature Day 2: −3.45 and −1.65 and −1.45 and −0.35
[1]
  Effect on body temperature: raises body temperature
Heat shock
  Sensitization to heat: sensitized male rats to heat
  Protection against heat, earlier work: did not show these effects
HSP 70 and ubiquitin
  Alteration of the molecular stress response: significant (p<0.05) alteration of the molecular stress response
[2]; [4]
  Changes in Body Temperature, Temperature Day 1: 2.36 and 1.82
  Changes in Body Temperature, Temperature Day 2: 1.55 and 0.2
[2]
  Effect on body temperature, earlier work: did not show these effects
Hemorrhagic shock; Summers et al. 2003
  Effect on fallen mean arterial pressure: quickly reverses fallen mean arterial pressure
  Survival of hemorrhagic shock: increase survival of hemorrhagic shock

## Tyr-D-Ala-Phe-Ala-Asp-Val-Ala-Ser-Thr-Ile-Gly-Asp-Phe-Phe-His-Ser-Ile-NH2 (AFADVASTIGDFFHSI; N-terminal Tyr-D-, C-amide; printed: Ala-Phe-Ala-Asp-Val-Ala-Ser-Thr-Ile-Gly-Asp-Phe-Phe-His-Ser-Ile-) [deltorphin D, linear 17 amino acid opioid peptide synthesized on a commercial peptide synthesizer]
Heat stroke; first rat, approx. 500 g, 1.8 ml of 1.0 mg/ml in the tail vein when symptoms of heat stroke were observed
  Survival after heat stroke: survived only a few minutes
Heat stroke; second rat, approx. 500 g, pre-treatment 1.8 ml of 1.0 mg/ml through arterial catheter
  Body temperature at blood pressure crash (onset of heat stroke): 41 °C
Heat stroke; [5]
  Ability to drink seven hours after the onset of heat stroke: able to drink 5 ml of water out of a pipette
  Ability to move two hours after the onset of heat stroke: able to move some on its own
  Survival after heat stroke: alive and healthy more than four weeks after the test
Heat stroke; third rat, approx. 200 g, 0.7 ml of 1.0 mg/ml before heating and fifteen minutes after onset, catheter installed the day before
  Survival time after the onset of heat stroke: approximately 75 minutes
Heat stroke; third rat, approx. 200 g, pre-treatment 0.7 ml of 1.0 mg/ml through arterial catheter
  Body temperature at blood pressure crash (onset of heat stroke): 41 °C
Heat stroke; third rat, compared with about 17 minutes in Chi et al. 1996
  Survival relative to expected time in the absence of deltorphin administration: more than four times the expected time
UbC; [3]
  UBC measurement (Northern blot transcript intensity): 0.7664
UbC; Female Heart, 1 mg/kg i.v.
  UBC measurement (Northern blot transcript intensity): 0.8595
UbC; Female Leg, 1 mg/kg i.v.
  UBC measurement (Northern blot transcript intensity): 0.2439
UbC; Male Brain, 1 mg/kg i.v.
  UBC measurement (Northern blot transcript intensity): 1.694
UbC; Male Heart, 1 mg/kg i.v.
  UBC measurement (Northern blot transcript intensity): 0.04345
UbC; Male Leg, 1 mg/kg i.v.
  UBC measurement (Northern blot transcript intensity): 0.1339
UbB; [3]
  UBB measurement (Northern blot transcript intensity): 2.844
UbB; Female Heart, 1 mg/kg i.v.
  UBB measurement (Northern blot transcript intensity): 2.845
UbB; Female Leg, 1 mg/kg i.v.
  UBB measurement (Northern blot transcript intensity): 2.803
UbB; Male Brain, 1 mg/kg i.v.
  UBB measurement (Northern blot transcript intensity): 2.259
UbB; Male Heart, 1 mg/kg i.v.
  UBB measurement (Northern blot transcript intensity): 0.5613
UbB; Male Leg, 1 mg/kg i.v.
  UBB measurement (Northern blot transcript intensity): 2.319
HSP70; [3]
  HSP measurement (Northern blot transcript intensity): 0.02634
HSP70; Female Heart, 1 mg/kg i.v.
  HSP measurement (Northern blot transcript intensity): 1.27
HSP70; Female Leg, 1 mg/kg i.v.
  HSP measurement (Northern blot transcript intensity): 0.9001
HSP70; Male Brain, 1 mg/kg i.v.
  HSP measurement (Northern blot transcript intensity): 1.043
HSP70; Male Heart, 1 mg/kg i.v.
  HSP measurement (Northern blot transcript intensity): 0.3697
HSP70; Male Leg, 1 mg/kg i.v.
  HSP measurement (Northern blot transcript intensity): 0.6697
[1]; Female rats
  Changes in Body Temperature, Temperature Day 1: −0.7 (2×) and 0.2 and −1.6 and −1.5
  Changes in Body Temperature, Temperature Day 2: −1.4 and −1.7 and −1.6 and −1.9 and −2.8
[1]; Male rats
  Changes in Body Temperature, Temperature Day 1: −2.6 and −2.2 and −1.2 and −3.1
  Changes in Body Temperature, Temperature Day 2: −2.9 and −1.4 and −0.7 and −2.2
[1]
  Effect on body temperature: lowers body temperature significantly
Heat shock
  Sensitization to heat: not
  Protection against heat, earlier work: protective against heat
HSP 70 and ubiquitin
  Alteration of the molecular stress response: significant (p<0.05) alteration of the molecular stress response
[2]
  Effect on body temperature, earlier work: lowered body temperature
Cerebral ischemia
  Effect on neurological deficit and cerebral infarct volume: decreasing neurological deficit and cerebral infarct volume

## [D-Ala2-MePhe4-Glyol]enkephalin [DAGO]
Hemorrhagic shock; bleeding non-lethal, Feuerstein et al. 1985
  Restoration of mean arterial pressure after hemorrhage: restore mean arterial pressure after hemorrhage
